Our source for the IC50 values is patent EP4095134A1, “POLYCYCLIC COMPOUNDS FOR THE TREATMENT OF NEUROLOGICAL INDICATIONS” (UCL Business Ltd, priority 2021, dated 2022).

The target of this assay is T1, P2Y1 receptor (Homo sapiens, UniProt P47900).
T1 construct: expressed in transfected cells
T1 sequence (P47900 whole entry): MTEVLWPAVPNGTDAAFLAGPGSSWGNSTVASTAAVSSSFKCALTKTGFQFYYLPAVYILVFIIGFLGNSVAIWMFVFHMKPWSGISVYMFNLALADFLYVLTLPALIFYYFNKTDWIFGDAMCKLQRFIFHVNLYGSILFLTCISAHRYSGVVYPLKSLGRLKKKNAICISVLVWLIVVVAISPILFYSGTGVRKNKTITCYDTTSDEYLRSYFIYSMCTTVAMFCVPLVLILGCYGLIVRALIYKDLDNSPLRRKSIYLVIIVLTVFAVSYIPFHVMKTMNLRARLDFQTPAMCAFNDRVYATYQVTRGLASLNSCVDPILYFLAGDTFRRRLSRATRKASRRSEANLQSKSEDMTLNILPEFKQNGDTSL
The experiment in a line: P2Y1 IP1 accumulation HTRF assay, antagonism of agonist MRS2365 in stably transfected cells. Type of assay: cell-based. Conditions: racemic; 5nM MRS2365; values rounded to nearest whole number; N >= 4. The procedure:
IC50 values were determined using a cell based assay in stably transfected cells overexpressing the P2Y1 receptor. The assay system is a […] (HTRF) assay measuring accumulation of the intracellular messenger inositol monophosphate (IP1), generated intracellularly following activation of P2Y1. Activity of test compounds was generated by measuring antagonism of the increase in IP1 generated by addition of a selective P2Y1 agonist, MRS2365.
P2Y1 overexpressing cells were maintained in T175 flasks. The day before the assay, these cells were split and 20µl cell suspension transferred to each well of white 384-well assay plates at a cell density of 0.5x10^6 cells/mL. Plates were pulse centrifuged, then incubated overnight at 37°C / 5% CO2 prior to assay.
On day of assay, medium was removed from cells and replaced with stimulation buffer. Compounds were prepared in 100% DMSO for addition to cells using the Tecan D300e digital dispenser; compounds were prepared in cassette heads and added directly to wells in the required concentration range, to give a 10-point concentration response curve from 10µM with semi-log dilutions and a final DMSO concentration of 0.1%. Positive control antagonist curves with standard compounds were included on each plate. Plates were incubated with antagonists for 1 hour prior to addition of 5nM of the agonist MRS2365, dispensed using a Bravo liquid handler. Following agonist addition, plates were incubated for 60 minutes prior to assay. Both incubations were carried out at 37°C / 5% CO2.
For the assay, IP1 accumulation was quantified using the IPOne kit according to manufacturer's instructions. In short, a standard curve was prepared for IP 1 quantification, and cells lysed using kit lysis buffer. Assay reagents were added to the lysates, and incubated for 1 hour at room temperature without spinning or shaking. Plates were analysed on a BMG Pherastar plate reader, and IP1 signal generated in cells interpolated from the standard curve.
For all reported results, N is greater than or equal to 4. An individual N refers to one assay run with a single weighing of compound. A minimum of two assay runs were performed for each of two independent weighings of compound. Results (racemic)
Usually IC50 stands for the midpoint of a concentration-inhibition curve. A low value points to greater potency. `Cc1ccc(NC(=O)Nc2ccc(C(C)C)cc2)c(Oc2ccccc2C2(C(F)(F)F)CCO2)n1` (racemic) [S1] yielded a half-maximal inhibitory concentration (IC50) of 0.02 µM. That is a double-digit nanomolar value. Compound `Cc1ccc(NC(=O)Nc2ccc(OC(F)(F)F)cc2F)c(Oc2ccccc2C2(C(F)(F)F)CCO2)n1` (racemic) [S2, 1-(2-fluoro-4-(trifluoromethoxy)phenyl)-3-(6-methyl-2-(2-(2-(trifluoromethyl)oxetan-2-yl)phenoxy)pyridin-3-yl)urea] returned a 50% inhibitory concentration (IC50) of 0.033 µM.

In turn, `Cc1ccc(NC(=O)Nc2ccc(OC(F)(F)F)cc2F)c(Oc2ccccc2C2(C(F)(F)F)CCN2C)n1` (racemic) [S3] showed a 50% inhibitory concentration (IC50) of 0.04 µM.

Compound `Cc1ccc(NC(=O)Nc2ccc(Cl)cc2F)c(Oc2ccccc2C2(C(F)(F)F)CCO2)n1` (racemic) [S4, 1-(4-chloro-2-fluorophenyl)-3-(6-methyl-2-(2-(2-(trifluoromethyl)oxetan-2-yl)phenoxy)pyridin-3-yl)urea] came in with a 50% inhibitory concentration (IC50) of 0.043 µM. The IC50 values of the last two compounds are within 1.5-fold of each other. As for `CCN1CCC1(c1ccccc1Oc1ncccc1NC(=O)Nc1ccc(OC(F)(F)F)cc1)C(F)(F)F` (racemic) [S5], the figure is 0.043 µM. `Cc1ccc(NC(=O)Nc2ccc(OC(F)(F)F)cc2)c(Oc2ccccc2C2(C(F)(F)F)CCN2C)n1` (racemic) [S6] registered an IC50 of 0.05 µM. `Cc1ccc(NC(=O)Nc2ccc(OC(F)(F)F)cc2)c(Oc2ccccc2C2(C(F)(F)F)CCO2)n1` (racemic) [S7, 1-(6-methyl-2-(2-(2-(trifluoromethyl)oxetan-2-yl)phenoxy)pyridin-3-yl)-3-(4-(trifluoromethoxy)phenyl)urea] displayed a half-maximal inhibitory concentration (IC50) of 0.055 µM. With `O=C(Nc1ccc(OC(F)(F)F)cc1)Nc1cccnc1Oc1ccccc1C1(C(F)(F)F)CCN1Cc1ccccc1` (racemic) [S8], the concentration for half-maximal inhibition (IC50) is 0.064 µM. This IC50 and that of the compound before are within 1.5-fold of each other. The compound `O=C(Nc1ccc(OC(F)(F)F)cc1F)Nc1cccnc1Oc1ccccc1C1(C(F)(F)F)CCO1` (racemic) [S9, 1-(2-fluoro-4-(trifluoromethoxy)phenyl)-3-(2-(2-(2-(trifluoromethyl)oxetan-2-yl)phenoxy)pyridin-3-yl)urea] gave an IC50 of 0.066 µM. With `CN1CCC1(c1ccccc1Oc1ncccc1NC(=O)Nc1ccc(Cl)cc1F)C(F)(F)F` (racemic) [S10], the IC50 was 0.078 µM. Compound `O=C(Nc1ccc(OC(F)(F)F)cc1)Nc1cccnc1Oc1ccccc1C1(C(F)(F)F)CCO1` (racemic) [S11, 1-(4-(trifluoromethoxy)phenyl)-3-(2-(2-(2-(trifluoromethyl)oxetan-2-yl)phenoxy)pyridin-3-yl)urea] showed an IC50 of 0.084 µM. Turning to `O=C(Nc1ccc(OC(F)(F)F)cc1F)Nc1cccnc1Oc1cc(F)ccc1C1(C(F)(F)F)CCO1` (racemic) [S12], the IC50 came to 0.087 µM.

`O=C(Nc1ccc(S(F)(F)(F)(F)F)cc1F)Nc1cccnc1Oc1ccccc1C1(C(F)(F)F)CCO1` (racemic) [S13, 1-(2-fluoro-4-(pentafluoro-λ^6-sulfaneyl)phenyl)-3-(2-(2-(2-(trifluoromethyl)oxetan-2-yl)phenoxy)pyridin-3-yl)urea] registered a concentration for half-maximal inhibition (IC50) of 0.093 µM. The figure for `O=C(Nc1ccc(OC(F)(F)F)cc1F)Nc1ccc(Cl)nc1Oc1ccccc1C1(C(F)(F)F)CCO1` (racemic) [S14, 1-(6-chloro-2-(2-(2-(trifluoromethyl)oxetan-2-yl)phenoxy)pyridin-3-yl)-3-(2-fluoro-4-(trifluoromethoxy)phenyl)urea] is 0.094 µM; for `Cc1ccc(NC(=O)Nc2ccc(OC3CC(F)(F)C3)cc2)c(Oc2ccccc2C2(C(F)(F)F)CCO2)n1` (racemic) [S15, 1-(4-(3,3-difluorocyclobutoxy)phenyl)-3-(6-methyl-2-(2-(2-(trifluoromethyl)oxetan-2-yl)phenoxy)pyridin-3-yl)urea] it is 0.105 µM; for `Cc1ccc(NC(=O)Nc2ccc(Cl)cc2F)c(Oc2ccc(F)cc2C2(C(F)(F)F)CCO2)n1` (racemic) [S16, 1-(4-chloro-2-fluorophenyl)-3-(2-(4-fluoro-2-(2-(trifluoromethyl)oxetan-2-yl)phenoxy)-6-methylpyridin-3-yl)urea] it is 0.108 µM. `Cc1ccc(NC(=O)Nc2ccc(Cl)c(F)c2)c(Oc2ccccc2C2(C(F)(F)F)CCO2)n1` (racemic) [S17, 1-(4-chloro-3-fluorophenyl)-3-(6-methyl-2-(2-(2-(trifluoromethyl)oxetan-2-yl)phenoxy)pyridin-3-yl)urea] gave a concentration for half-maximal inhibition (IC50) of 0.114 µM. As for `Cc1ccc(NC(=O)Nc2ccc(Cl)cc2)c(Oc2ccccc2C2(C(F)(F)F)CCO2)n1` (racemic) [S18, 1-(4-chlorophenyl)-3-(6-methyl-2-(2-(2-(trifluoromethyl)oxetan-2-yl)phenoxy)pyridin-3-yl)urea], the figure is 0.118 µM; as for `Cc1ccc(NC(=O)Nc2ccc(OC(F)(F)F)cc2)c(Oc2ccc(F)cc2C2(C(F)(F)F)CCO2)n1` (racemic) [S19, 1-(2-(4-fluoro-2-(2-(trifluoromethyl)oxetan-2-yl)phenoxy)-6-methylpyridin-3-yl)-3-(4-(trifluoromethoxy)phenyl)urea], 0.12 µM; as for `O=C(Nc1ccc(OC(F)(F)F)cc1)Nc1ccc(Cl)nc1Oc1ccccc1C1(C(F)(F)F)CCO1` (racemic) [S20, 1-(6-chloro-2-(2-(2-(trifluoromethyl)oxetan-2-yl)phenoxy)pyridin-3-yl)-3-(4-(trifluoromethoxy)phenyl)urea], 0.125 µM. Take `O=C(Nc1ccc(OC(F)(F)F)cc1F)Nc1cccnc1Oc1ccc(F)cc1C1(C(F)(F)F)CCO1` (racemic) [S21, 1-(2-(4-fluoro-2-(2-(trifluoromethyl)oxetan-2-yl)phenoxy)pyridin-3-yl)-3-(2-fluoro-4-(trifluoromethoxy)phenyl)urea]: the IC50 was found to be 0.14 µM. The IC50 values of the last two compounds are within 1.5-fold of each other. The figure for `O=C(Nc1ccc(Cl)cc1F)Nc1ccc(Cl)nc1Oc1ccccc1C1(C(F)(F)F)CCO1` (racemic) [S22, 1-(6-chloro-2-(2-(2-(trifluoromethyl)oxetan-2-yl)phenoxy)pyridin-3-yl)-3-(4-chloro-2-fluorophenyl)urea] is 0.141 µM; for `O=C(Nc1ccc(OC(F)(F)F)c(F)c1)Nc1cccnc1Oc1ccccc1C1(C(F)(F)F)CCO1` (racemic) [S23, 1-(3-fluoro-4-(trifluoromethoxy)phenyl)-3-(2-(2-(2-(trifluoromethyl)oxetan-2-yl)phenoxy)pyridin-3-yl)urea] it is 0.145 µM. As for `O=C(Nc1ccc(Cl)cc1)Nc1ccc(Cl)nc1Oc1ccccc1C1(C(F)(F)F)CCO1` (racemic) [S24, 1-(6-chloro-2-(2-(2-(trifluoromethyl)oxetan-2-yl)phenoxy)pyridin-3-yl)-3-(4-chlorophenyl)urea], the IC50 worked out at 0.145 µM.

For the compound `O=C(Nc1ccc(C(F)(F)F)cc1)Nc1cccnc1Oc1ccccc1C1(C(F)(F)F)CCO1` (racemic) [S25, 1-(2-(2-(2-(trifluoromethyl)oxetan-2-yl)phenoxy)pyridin-3-yl)-3-(4-(trifluoromethyl)phenyl)urea], the 50% inhibitory concentration (IC50) worked out at 0.146 µM. The compound `O=C(Nc1ccc(OC(F)(F)F)cc1)Nc1cccnc1Oc1ccc(F)cc1C1(C(F)(F)F)CCO1` (racemic) [S26, 1-(2-(4-fluoro-2-(2-(trifluoromethyl)oxetan-2-yl)phenoxy)pyridin-3-yl)-3-(4-(trifluoromethoxy)phenyl)urea] yielded a concentration for half-maximal inhibition (IC50) of 0.152 µM. This IC50 and that of the compound before are within 1.5-fold of each other. As for `O=C(Nc1ccc(Cl)cc1)Nc1cccnc1Oc1ccccc1C1(C(F)(F)F)CCO1` (racemic) [S27, 1-(4-chlorophenyl)-3-(2-(2-(2-(trifluoromethyl)oxetan-2-yl)phenoxy)pyridin-3-yl)urea], the figure is 0.153 µM.
